Reference: US20150132328A1 (priority 2011, published 2015)
Where two headings read alike, the source gives them in different places.

Key:
newborn rat thymocytes = details: Con A 50 pg/mL
Source text: It was used an octapeptide with similar weight for the elaboration of the complex, to which was just the proline (4) and Glycine (5) original amino acids were interchanged by proline (4) and Glycine (5) resulting as […].

Jurkat cells = details: peptide 10^−10M, PHA 1 μg/mL
IL-2 = details: umbilical cord blood; PHA; cited from earlier work
THP-1 cells = details: for Proliferation (% with respect to the control): LPS 0.5 μg/mL
Source text: We proceeded to perform some related to the proliferative stimulation of the peptide in presence of other divalent cations such as magnesium, copper, and manganese.

human lymphocytes = details: for Proliferation (% with respect to the control): PHA 1 μg/mL

In the case of LEDGPKFL [reference compound], the “Proliferation (% with respect to the control)” value (newborn rat thymocytes; 10^−6 (918 ng/mL)) is reported as 123.1 ± 6.1 %, the “Proliferation (% with respect to the control)” value (newborn rat thymocytes; 10^−7 (91.8 ng/mL)) is reported as 125.6 ± 3.9 % and the “Proliferation (% with respect to the control)” value (newborn rat thymocytes; 10^−7.5 (9.58 ng/mL)) is reported as 119.2 ± 6.1 %. For the same substance, the “Proliferation (% with respect to the control)” value (newborn rat thymocytes; 10^−8 (9.18 ng/mL)) was 117.3 ± 3.2 %, the “Proliferation (% with respect to the control)” value (newborn rat thymocytes; 10^−9 (0.91 ng/mL)) was 110.6 ± 7.9% and the “Proliferation (% with respect to the control)” value (newborn rat thymocytes; 10^−10 (0.09 ng/mL)) was 104.3 ± 4.8%. For the same substance, the “Proliferation (% with respect to the control)” value (newborn rat thymocytes; 10^−11 (0.009 ng/mL)) was 103.7 ± 5.1%, the “Proliferation (% with respect to the control)” value (newborn rat thymocytes; 10^−12 (0.0009 ng/mL)) was 104.4 ± 2.5% and the “Proliferation (% with respect to the control)” value (Jurkat cells; [ZINC] (M) −8) was 195 ± 10 %. The “Proliferation (% with respect to the control)” value (Jurkat cells; [ZINC] (M) −9) was 192 ± 12 %, the “Proliferation (% with respect to the control)” value (Jurkat cells; [ZINC] (M) −10) was 190 ± 10 % and the “Proliferation (% with respect to the control)” value (Jurkat cells; [ZINC] (M) −11) was 135 ± 10 %. The “Proliferation (% with respect to the control)” value (Jurkat cells; [ZINC] (M) −12) was 102 ± 5.2% and the “Concentrations increasing IL-2 production” value (IL-2) was 300 to 600 ng/mL.

In the case of Zinc [reference compound], the “Proliferation (% with respect to the control)” value (THP-1 cells; Concentration (M) −6) is reported as 105 ± 8.8%, the “Proliferation (% with respect to the control)” value (THP-1 cells; Concentration (M) −7) is reported as 102 ± 9.7% and the “Proliferation (% with respect to the control)” value (THP-1 cells; Concentration (M) −7.5) is reported as 104 ± 8.8%. For the same substance, the “Proliferation (% with respect to the control)” value (THP-1 cells; Concentration (M) −8) was 102 ± 12.1%, the “Proliferation (% with respect to the control)” value (THP-1 cells; Concentration (M) −9) was 103 ± 9.9% and the “Proliferation (% with respect to the control)” value (THP-1 cells; Concentration (M) −10) was 100 ± 7.0%. For the same substance, the “Proliferation (% with respect to the control)” value (THP-1 cells; Concentration (M) −11) was 101 ± 3.9%, the “Proliferation (% with respect to the control)” value (THP-1 cells; Concentration (M) −12) was 98 ± 4.5% and the “Effect on proliferation” value (THP-1 cells; zinc ion by itself) was “did not stimulate the proliferation”. The “Proliferation (% with respect to the control)” value (human lymphocytes; Concentration (M) −6) was 96 ± 2.8%, the “Proliferation (% with respect to the control)” value (human lymphocytes; Concentration (M) −7) was 99 ± 2.7% and the “Proliferation (% with respect to the control)” value (human lymphocytes; Concentration (M) −7.5) was 95 ± 3.8%. The “Proliferation (% with respect to the control)” value (human lymphocytes; Concentration (M) −8) was 101 ± 4.1%, the “Proliferation (% with respect to the control)” value (human lymphocytes; Concentration (M) −9) was 103 ± 3.9% and the “Proliferation (% with respect to the control)” value (human lymphocytes; Concentration (M) −10) was 100 ± 3.0%. For the same substance, the “Proliferation (% with respect to the control)” value (human lymphocytes; Concentration (M) −11) was 99 ± 3.9%, the “Proliferation (% with respect to the control)” value (human lymphocytes; Concentration (M) −12) was 96 ± 4.5% and the “Effect on proliferation” value (human lymphocytes; zinc ion by itself, PHA stimulated) was “did not modify the proliferation”.
